Assay results published in US20090214578A1, “Immunostimulatory Single-Stranded Ribonucleic Acid with Phosphodiester Backbone” (priority 2005, published 2009).
Strand notation (5' to 3'): a small letter for the sugar, then the base; units joined by * are phosphorothioate-linked, units joined directly phosphodiester-linked; [ ] holds rarer units or linkages, { } end groups; capitals alone tell only the bases. r = 2'-OH (RNA)

Columns and labels:
[1] = tested on: TLR7/TLR9 double deficient sorted mDCs; test: ssRNA stimulation of TLR7/TLR9 double deficient sorted mDCs; format: cell-based, mice
Text: (§1) Since the ssRNA-driven TLR7-independent immune stimulation is dependent on MyD88 and endosomal maturation, it was hypothesized that other intracellular TLRs are involved. TLR3 seems a poor candidate for the recognition of ssRNA since it mainly relies on the adaptor molecule TRIF and not MyD88 (Hoebe, Du et al. 2003). Nevertheless, to rule out TLR3 as receptor for ssRNA, TLR3- and TLR7-deficient mice were crossed to obtain TLR3/TLR7 double deficient mice, and immune cells from these mice were tested for ssRNA stimulation. […] TLR7/TLR9 double deficient mice were also generated to investigate the involvement of TLR9 in RNA63 recognition.

[2] = tested on: TLR7/TLR9 double deficient GM-CSF-derived DCs; test: ssRNA stimulation of TLR7/TLR9 double deficient GM-CSF-derived DCs; format: cell-based, mice
Text: as §1

[3] = tested on: TLR7-deficient FLT3-L-induced DCs; test: RNA63-induced activation of siRNA-transfected TLR7-deficient FLT3-L-induced DCs; format: cell-based, murine
Text: (§2) The reduction in RNA63-driven immune activation correlated with siRNA-driven downregulation of mTLR8 RNA.

[4] = tested on: TLR3/TLR7 double deficient FLT3-L-induced DCs; test: ssRNA stimulation of TLR3/TLR7 double deficient FLT3-L-induced DCs; format: cell-based, mice
Text: as §1

pDC, wild-type cells = test: Recognition of ssRNA by pDC, wild-type cells; format: cell-based, murine; conditions: for Recognition by pDC: wild-type cells
Text: (§3) To further investigate the role of TLR9 in the recognition of PD ssRNA, various RNA sequences, such as RNA41 (5′-[…]-3′; SEQ ID NO:4) and RNA42 (5′-[…]-3′; SEQ ID NO:5) that have been previously described as not active in murine cells when synthesized with a PTO backbone (Heil, Hemmi et al. 2004), were synthesized.

TLR7-deficient mDC = test: IL-12p40 production by TLR7-deficient mDC; format: cell-based, murine; conditions: TLR7-single deficient mDC
Text: as §3

[5] = tested on: Wild-type FLT3-L-induced DCs; test: IL-12 secretion of siRNA-treated wild-type FLT3-L-induced DCs on ssRNA stimulation; format: cell-based, murine; conditions: wild-type FLT3-L-induced DCs treated with mTLR8-specific siRNA; for reduction in IL-12 secretion in mTLR8-specific siRNA-treated cells: then stimulated with the ORN
Text: as §2

TLR9-deficient mDC = test: IL-12p40 production by TLR9-deficient mDC; format: cell-based, murine
Text: as §3

[6] = tested on: wild-type FLT3-L-induced dendritic cells; test: FACS for CD69 on FLT3-L-induced dendritic cells, wild-type; format: cell-based, mice; conditions: with DOTAP, 24 hours, FIG. 4
Method: (§4) FLT3-L-induced dendritic cells were prepared from wild-type and TLR7−/− mice and cultured for 24 hours in the presence of RNA63 PD or RNA63 PTO, each with DOTAP, as in Example 2. After 24 hours incubation, cells were collected and analyzed by FACS for CD69.

[7] = tested on: wild-type FLT3-L-induced dendritic cells; test: Cytokine ELISA (IL-12p40, IL-6, IFN-α), FLT3-L-induced dendritic cells, wild-type; format: cell-based, mice; conditions: with DOTAP, 24 hours; for IL-12p40 induction: FIG. 3A; for IL-6 induction: FIG. 3B; for IFN-α induction: FIG. 3C
Method: (§5) FLT3-L-induced dendritic cells were prepared from wild-type and TLR7−/− mice and cultured in the presence of varied amounts of RNA63 PD or RNA63 PTO, each with DOTAP. After 24 hours incubation, supernatants were collected and analyzed by ELISA for IL-12p40, IL-6, and IFN-α. LPS, R-848, CpG-ODN 1668, CpG-ODN 2216 (5′-GGGGGACGATCGTCGGGGG-3′, SEQ ID NO:3), DOTAP alone, and medium alone were run as controls. Data are presented as mean±SEM.

[8] = tested on: TLR7−/− FLT3-L-induced dendritic cells; test: Cytokine ELISA (IL-12p40, IL-6, IFN-α), FLT3-L-induced dendritic cells, TLR7−/−; format: cell-based, mice; conditions: for IFN-α induction / IL-6 induction / IL-12p40 induction: with DOTAP, 24 hours
Method: as §5

[9] = tested on: GM-CSF-derived dendritic cells from wild-type mice; test: IL-12p40 ELISA, GM-CSF-derived dendritic cells, wild-type; format: cell-based; conditions: with DOTAP, 24 hours, FIG. 5
Method: (§6) M-CSF-derived macrophages and GM-CSF-derived dendritic cells were prepared from wild-type and TLR7−/− mice and cultured for 24 hours in the presence of RNA63 PD plus DOTAP, RNA63 PTO plus DOTAP. LPS, R-848, CpG-ODN 1668, CpG-ODN 2216, DOTAP alone, or medium alone. Culture supernatants were then collected and analyzed using ELISA for IL-12p40. Data are presented as mean±SEM.

MyD88−/− dendritic cells [10] = test: FACS for CD69, FLT3-L-induced dendritic cells, MyD88−/−; format: cell-based, mice; conditions: with DOTAP, 24 hours, FIG. 6
Method: (§7) FLT3-L-induced dendritic cells were separately prepared from wild-type, TLR7−/−, and MyD88−/− mice and cultured for 24 hours in the presence of RNA63 PD or RNA63 PTO, each with DOTAP, as in Example 2. After 24 hours incubation, cells were collected and analyzed by ELISA for IL-12p40 and by FACS for CD69.

[11] = tested on: peripheral blood mononuclear cells from wild-type mice; test: IL-12p40 ELISA on supernatants of peripheral blood mononuclear cells, wild-type mice; format: cell-based; conditions: added with DOTAP, 24 hours, FIG. 2
Method: (§8) Peripheral blood mononuclear cells were isolated from wild-type and TLR7−/− mice, transferred into suitable growth medium, and then aliquoted separately into individual wells of multiwell culture plates. The following agents were added to individual wells of cells: RNA63 PD, a single-stranded ORN having a nucleotide sequence provided as 5′-CAGGUCUGUGAU-3′ (SEQ ID NO:1), in which all internucleotide linkages are phosphodiester except for a phosphorothioate linkage between the A and U at the 3′ end of the ORN; RNA63 PTO, a single-stranded ORN having the same nucleotide sequence as SEQ ID NO: 1, in which every internucleotide linkage is phosphorothioate; CpG-ODN 1668, an oligodeoxynucleotide having a nucleotide sequence provided as 5′-[…]-3′ (SEQ ID NO:2); DOTAP alone; R-848; RNA63 PTO plus DOTAP; RNA63 PD plus DOTAP; and medium alone. Cells were maintained in culture for 24 hours, and then supernatants from individual wells collected and analyzed using enzyme-linked immunosorbent assay (ELISA) specific for IL-12p40. Data are presented as mean±SEM.

[12] = tested on: TLR7−/− GM-CSF-derived dendritic cells; test: IL-12p40 ELISA, GM-CSF-derived dendritic cells, TLR7−/−; format: cell-based, mice; conditions: with DOTAP, 24 hours, FIG. 5
Method: as §6

[13] = tested on: M-CSF-derived macrophages from wild-type mice; test: IL-12p40 ELISA, M-CSF-derived macrophages, wild-type; format: cell-based; conditions: with DOTAP, 24 hours, FIG. 5
Method: as §6

[14] = tested on: peripheral blood mononuclear cells from TLR7−/− mice; test: IL-12p40 ELISA on supernatants of peripheral blood mononuclear cells, TLR7−/− mice; format: cell-based; conditions: TLR 7−/− cells, added with DOTAP, 24 hours, FIG. 2
Method: as §8

MyD88−/− dendritic cells [15] = test: IL-12p40 ELISA, FLT3-L-induced dendritic cells, MyD88−/−; format: cell-based, mice; conditions: with DOTAP, 24 hours, FIG. 6
Method: as §7

[16] = tested on: TLR7−/− M-CSF-derived macrophages; test: IL-12p40 ELISA, M-CSF-derived macrophages, TLR7−/−; format: cell-based, mice; conditions: with DOTAP, 24 hours, FIG. 5
Method: as §6

[17] = tested on: TLR7−/− FLT3-L-induced dendritic cells; test: FACS for CD69 on FLT3-L-induced dendritic cells, TLR7−/−; format: cell-based, mice; conditions: with DOTAP, 24 hours, FIG. 4
Method: as §4

[18] = tested on: pDC, TLR7-single deficient cells; test: Recognition of ssRNA by pDC, TLR7-single deficient cells; format: cell-based, murine
Text: as §3

murine cells [19] = conditions: synthesized with a PTO backbone; Heil, Hemmi et al. 2004; cited from earlier work
[20] = tested on: pDC, TLR9-single deficient cells; test: Recognition of ssRNA by pDC, TLR9-single deficient cells; format: cell-based, murine
Text: as §3

murine cells [21] = test: Stimulatory capacity of ORN with PTO or PD backbone in murine cells; format: cell-based; conditions: TLR7-independent fashion
Text: as §3

human PBMCs = test: Stimulatory capacity of ORN with PTO or PD backbone in human PBMCs; format: cell-based
Text: as §3

5′-CAGGUCUGUGAU-3′ (listed as RNA, chemistry not fully specified) [RNA63]
CD69 upregulation [1]: failed | IL-12p40 production [1]: failed to produce IL-12p40 | CD69 upregulation [2]: failed | IL-12p40 production [2]: failed to produce IL-12p40 | RNA63-induced IL-12p40 production in DCs treated with mTLR8-specific siRNA [3]: strong reduction | activation markers such as CD40 in DCs treated with mTLR8-specific siRNA ([3]; RNA63 stimulation): downregulation | RNA63-driven CD69 upregulation [4]: still functional | RNA63-driven IL-12p40 production [4]: still functional

5′-GCCCGUCUGUUGUGUGACUC-3′ [RNA40, reference compound]
TLR dependence of recognition by pDC (pDC, wild-type cells; GU-rich RNA): TLR7-dependent fashion | IL-12p40 production (TLR7-deficient mDC): induced some IL-12p40 | Influence of mTLR8-specific siRNA on stimulation [5]: not influenced | IL-12p40 production (TLR9-deficient mDC): induced some IL-12p40

5′-CAGGUCUGUGAU-3′ [RNA63 PTO] (rC*rA*rG*rG*rU*rC*rU*rG*rU*rG*rA*rU) [reference compound]
CD69 induction [6]: induced significant amounts of CD69 | IL-12p40 induction [7]: induced significant amounts | IL-6 induction [7]: induced significant amounts | IFN-α induction [7]: induced significant amounts | IFN-α induction [8]: not | IL-6 induction [8]: not | IL-12p40 induction [8]: not | IL-12p40 induction [9]: induced significant amounts of IL-12p40 | induction of CD69 (MyD88−/− dendritic cells [10]): absent | IL-12p40 induction [11]: induced IL-12p40 | IL-12p40 induction [12]: not | IL-12p40 induction [13]: induced significant amounts of IL-12p40 | IL-12p40 induction [14]: not | induction of IL-12p40 (MyD88−/− dendritic cells [15]): absent | IL-12p40 induction [16]: not | CD69 induction [17]: not

5′-GCCCGACAGAAGAGAGACAC-3′ (listed as RNA, chemistry not fully specified) [RNA41, PTO in the cited result, probably PD in pDC and siRNA tests]
Response of pDC [18]: failed to respond | Recognition by pDC (pDC, wild-type cells): also recognized | Activity in murine cells (murine cells [19]): not active | Response of pDC [20]: failed to respond | reduction in IL-12 secretion in mTLR8-specific siRNA-treated cells [5]: 75%

5′-ACCCAUCUAUUAUAUAACUC-3′ (listed as RNA, chemistry not fully specified) [RNA42, PTO in the cited result, probably PD in pDC and siRNA tests]
Response of pDC [18]: failed to respond | Recognition by pDC (pDC, wild-type cells): also recognized | Activity in murine cells (murine cells [19]): not active | Response of pDC [20]: failed to respond | reduction in IL-12 secretion in mTLR8-specific siRNA-treated cells [5]: 50%

5′-GCCCGACAGAAGAGAGACAC-3′ (listed as RNA, chemistry not fully specified) [RNA41 PD]
IFN-α stimulation (murine cells [21]): stimulate | IL-6 stimulation (murine cells [21]): stimulate | IL-12p40 stimulation (murine cells [21]): stimulate | IFN-α stimulation (human PBMCs): no IFN-α | TNF-α stimulation (human PBMCs): stimulate | IL-12p40 production (TLR9-deficient mDC): failed to produce IL-12p40

5′-ACCCAUCUAUUAUAUAACUC-3′ (listed as RNA, chemistry not fully specified) [RNA42 PD]
IFN-α stimulation (murine cells [21]): stimulate | IL-6 stimulation (murine cells [21]): stimulate | IL-12p40 stimulation (murine cells [21]): stimulate | IFN-α stimulation (human PBMCs): no IFN-α | TNF-α stimulation (human PBMCs): stimulate | IL-12p40 production (TLR9-deficient mDC): failed to produce IL-12p40

5′-CAGGUCUGUGAU-3′ [RNA63 PD] (one 3' phosphorothioate linkage, chemistry not fully specified)
CD69 induction [6]: induced significant amounts of CD69 | IL-12p40 induction [7]: induced significant amounts | IL-6 induction [7]: induced significant amounts | IFN-α induction [7]: induced significant amounts | Dependence of the amount of IL-12p40 induced on concentration ([8]; varied amounts of ORN with DOTAP): varied in proportion to the concentration | IFN-α induction [8]: albeit less strongly | IL-6 induction [8]: albeit less strongly | IL-12p40 induction [8]: induced IL-112p40 | IL-12p40 induction [9]: induced significant amounts of IL-12p40 | induction of CD69 (MyD88−/− dendritic cells [10]): absent | IL-12p40 induction [11]: induced IL-12p40 | IL-12p40 induction [12]: induced significant amounts of IL-12p40 | IL-12p40 induction [13]: induced significant amounts of IL-12p40 | IL-12p40 induction [14]: induced IL-12p40 | induction of IL-12p40 (MyD88−/− dendritic cells [15]): absent | IL-12p40 induction [16]: induced significant amounts of IL-12p40 | CD69 induction [17]: induced CD69
